Series [1] is described as follows: Acute toxicity in mice after intraperitoneal administration (LD50, 24 hours). To be noted: mouse, in vivo, ip; mice, intraperitoneal, death of one-half after 24 hours. The format is in vivo. Here is the method:
(§1) The following Table I sets forth the comparative results of the effectiveness of the parent antibiotic, daunorubicin, in the inhibition of the growth of the cancerous cells of murine leukemia P-388 in mice versus the anticancer activity of enamine derivatives of daunorubicin according to the present invention. ED50 denotes the concentration of the compound being tested leading to 50 percent inhibition of cancerous cell growth at 48 hours incubation time of the compound being tested. LD50 indicates the dosage of the tested compounds which cause death after 24 hours of one-half of the number of mice which have been intraperitonically administered the subject compound. T/C in percent represents the ratio of mean survival time of the group of treated mice versus the group of untreated mice.

A further series deals with mice. The description is as above. To be noted: daunorubicin versus the inventive derivatives. In kind it is in vivo. Here is the method:
as §1

Series [2] has as its system cardiac muscle of rats. To be noted: i.p., three dosage levels (0.2, 10, 20 mg/kg), H+E, light and polarizing microscopes; cited from earlier work.
The test system of the next series is murine leukemia P-388. The series is described as follows: Anticancer activity in mice with leukemia P-388, survival time (T/C). To be noted: for T/C (second value, in parentheses): not explained. In kind it is in vivo. As for the experimental part: as §1
For series [3], the system named is cardiac muscle of rats. The series is described as follows: Examination of the cardiac muscle of rats after intraperitoneal administration (cardiotoxicity). The format is in vivo. To be noted: i.p., 0.2, 10 and 20 mg/kg, versus daunorubicin. The source says: Preparations from cardiac muscle tinted with H+E have been examined under light and polarizing microscopes.

Compound `COc1cccc2c1C(=O)c1c(O)c3c(c(O)c1C2=O)C[C@@](O)(C(C)=O)C[C@@H]3O[C@H]1C[C@H](N)[C@H](O)[C@H](C)O1` [Daunorubicin, daunorubicin] returned an LD50 at 24 h in series [1] of 135 mg/kg. Further, in the series with mice, the “dosage level of toxic effects” value is on record as “occur at a far lower dosage level as opposed to the inventive derivatives”. The “subsegmentary contractions / disturbances in heart rhythm” value with cardiac muscle of rats [2] is reported as “leads to the formation of numerous subsegmentary contractions causing, in effect, disturbances in heart rhythm”. Further, the T/C in the series on murine leukemia P-388 (Dose (mg/kg) 3 130) was determined as 108%; in the series with murine leukemia P-388 (Dose (mg/kg) 6 250), 112%; with murine leukemia P-388 (Dose (mg/kg) 12 500), 112%; in the series on murine leukemia P-388 (Dose (mg/kg) 25 000), 127%; in the series on murine leukemia P-388 (Dose (mg/kg) 50 000) it was 102%.

In series [1], `CCOC(=O)C=C(C)N[C@H]1C[C@H](O[C@H]2C[C@](O)(C(C)=O)Cc3c(O)c4c(c(O)c32)C(=O)c2c(OC)cccc2C4=O)O[C@@H](C)[C@H]1O` [N-(1-carboethoxy-propen-1-yl-2)-daunorubicin] gave an LD50 at 24 h of 500 mg/kg. Further, the “subsegmentary contractions / disturbances in heart rhythm” value in the series with cardiac muscle of rats [2] is “does not cause said disturbances, the cardiac muscle evidencing a regular and alternating system of isotropic and anizotropic fringes”. Also, the T/C in the series with murine leukemia P-388 (Dose (mg/kg) 3 130) is 94%; in the series with murine leukemia P-388 (Dose (mg/kg) 6 250), 103%; with murine leukemia P-388 (Dose (mg/kg) 12 500) it was 103%; in the series with murine leukemia P-388 (Dose (mg/kg) 25 000), 115%; in the series with murine leukemia P-388 (Dose (mg/kg) 50 000), 132%; with murine leukemia P-388 (Dose (mg/kg) 100 000), 144%. The compound further returned a T/C in the series with murine leukemia P-388 (Dose (mg/kg) 200 000) of 102%. Also, the “T/C (second value, in parentheses)” value was found to be 119% in the series with murine leukemia P-388 (Dose (mg/kg) 25 000) and 128% in the series with murine leukemia P-388 (Dose (mg/kg) 50 000). Besides, the “morphological and ultrastructural changes to muscular tissue” value in the series on cardiac muscle of rats [3] was “considerably less morphological and ultrastructural changes to muscular tissue than does the initial daunorubicin”.

As to `COc1cccc2c1C(=O)c1c(O)c3c(c(O)c1C2=O)C[C@@](O)(C(C)=O)C[C@@H]3O[C@H]1C[C@H](NC(C)=CC(C)=O)[C@H](O)[C@H](C)O1` [N--(penten-2-on-4 yl-2)-daunorubicin, N-(penten-2-on-4-yl-2) daunorubicin], the LD50 at 24 h in series [1] came out at 500 mg/kg. Also, the T/C turned out to be 131% in the series on murine leukemia P-388 (Dose (mg/kg) 3 130); 110% in the series on murine leukemia P-388 (Dose (mg/kg) 6 250); 119% in the series on murine leukemia P-388 (Dose (mg/kg) 12 500); 125% with murine leukemia P-388 (Dose (mg/kg) 25 000); 118% in the series with murine leukemia P-388 (Dose (mg/kg) 50 000); 147% in the series with murine leukemia P-388 (Dose (mg/kg) 100 000). Also, the T/C result in the series on murine leukemia P-388 (Dose (mg/kg) 200 000) is on record as “toxic”. Further, the “T/C (second value, in parentheses)” value is reported as 131% in the series with murine leukemia P-388 (Dose (mg/kg) 25 000) and 144% with murine leukemia P-388 (Dose (mg/kg) 50 000).

These data come from patent US4824944A, “Antineoplastic enamine derivatives of daunorubicin and adriamycin” (Politechnika Gdanska, priority 1987, dated 1989).
